For one assay, the system named is Burkholderia glumae. Description: Antimicrobial assay in vitro: growth of B. glumae in KB broth (OD600 after 18 hours). The conditions noted are these: for minimum inhibitory concentration needed for reduction of B. glumae growth in vitro: concentrations tested 1000, 100, 10 μg/mL; for growth of B. glumae (in words): concentrations ranging from 10 μg/mL to 1000 μg/mL.

In assay [1] the test system is rifampicin-resistant strain of B. glumae. Description: Antimicrobial assay in planta: rice panicles pre-treated with compound, then spray-inoculated with B. glumae (BPB symptoms, bacterial populations). The assay is classed as in vivo, Burkholderia glumae. The conditions noted are these: 3 dpi; for reduction of B. glumae populations in rice panicles: pre-treated with 500 μg/mL, vs water pre-treated inoculated panicles, FIG. 4B; for BPB symptoms in rice panicles (in words): rice Kitaake panicles pre-treated with 500 μg/mL, water pre-treated, inoculated panicles exhibited the highest levels of BPB symptoms, FIG. 4A.

Where [2] appears, read: at a concentration of 1000 μg/mL.
[3] abbreviates: compound at 1000 μg/mL, 18 hours, FIG. 2.
Setting [4] is: other concentrations than 1000 μg/mL (100 μg/mL, 10 μg/mL), FIG. 2.
[5] abbreviates: at the three concentrations 10 μg/mL, 100 μg/mL, 1000 μg/mL.
[6] abbreviates: compound at 100 μg/mL, 18 hours, FIG. 2.

Entries after “also recorded” stand apart in the source; their conditions may differ.

Protocol for Burkholderia glumae: A single colony of P. protegens PBL3 was grown in 1×M9 minimal media (Sigma Aldrich, St. Louis, MO) supplemented with filter-sterilized 56 mM Myo-inositol, 2 mM MgSO4·7H2O, and 0.2 mM CaCl2). The culture was incubated at 25° C. with constant agitation (210 rpm) for 60 hours until reaching an optical density at 600 nm (OD600) of 0.5. Bacterial culture was centrifuged at 10,000 rpm for 10 minutes. The bacterial pellet was discarded and the supernatant, containing the secreted fraction (secretome) was transferred to a new tube and filter-sterilized using a 0.22 μm filter (Fisher Scientific, Ireland) to eliminate any residual bacterial suspension.
Orfamide A, orfamide B, pyrrolnitrin, and pyoluteorin (Cayman Chemical Company, Ann Arbor, MI), and pyochelin (Santa Cruz Biotechnology, Dallas, TX), were diluted in 5% dimethyl sulfoxide (DMSO) at 1000 μg/mL and further diluted to 100 μg/mL and 10 μg/mL. Similarly, pyoverdine (Sigma-Aldrich, Saint Louis, MO) was diluted in water, whereas 2,4-DAPG (ThermoFisher Scientific, Poland) and fengycin (Sigma-Aldrich, Saint Louis, MO) were diluted in 5% ethanol at 1000 μg/mL and further diluted to 100 μg/mL and 10 μg/mL.
Burkholderia glumae grown on KB was scraped from the agar and resuspended in sterile water to a final OD600 of 0.2. One hundred microliters of B. glumae was added to 200 μL of KB broth to make a master mix. The master mix was supplemented with either water, 5% DMSO, or 5% ethanol, used as control. Alternatively, master mix was supplemented with either P. protegens PBL3 secretome or different compounds (orfamide A, orfamide B, fengycin, pyrrolnitrin, pyochelin, pyoverdine, 2,4-DAPG, or pyoluteorin), each at three concentrations of 1000 μg/mL, 100 μg/mL, and 10 μg/mL, or combination of compounds. Two compound combinations were chosen, the first combination consisted of 2,4-DAPG and pyoluteorin at final concentrations of 100 μg/mL and 10 μg/mL, respectively. The second combination consisted of 2,4-DAPG and pyoluteorin, each at concentration of 10 μg/mL. […] The growth of B. glumae was evaluated by measuring the OD600 using a spectrophotometer (Genesys 140, Thermoscientific, Madison, WI, USA). Each experiment was replicated three times.

Turning to `O=[N+]([O-])c1c(Cl)cccc1-c1c[nH]cc1Cl` [pyrrolnitrin], the “effect on growth of B. glumae (in words)” value with Burkholderia glumae (setting [2]) is given as “inhibits B. glumae”; in the assay with Burkholderia glumae (setting [4]), “did not have any effect”. Besides, the “reduction of growth of B. glumae” value in the assay with Burkholderia glumae (setting [3]) came to 25%. The “minimum inhibitory concentration needed for reduction of B. glumae growth in vitro” value in the assay with Burkholderia glumae is 1000 µg/mL.
On to orfamide B, for which, in the assay with Burkholderia glumae (FIG. 2), the “growth of B. glumae (in words)” value is given as “did not reduce the growth of B. glumae”.
Consider pyoverdine, for which the “effect on growth of B. glumae (in words)” value with Burkholderia glumae (setting [5]) is given as “inhibits B. glumae”. The “reduction of growth of B. glumae” value with Burkholderia glumae (setting [6]) and with Burkholderia glumae (setting [3]) was about 80% in each case. Also, the “minimum inhibitory concentration needed for reduction of B. glumae growth in vitro” value in the assay on Burkholderia glumae came to 100 µg/mL. The “reduction of B. glumae populations in rice panicles” value (“reduction of B. glumae populations” for short) in assay [1] is reported as “No changes in B. glumae populations”.
Orfamide A: the “growth of B. glumae (in words)” value in the assay on Burkholderia glumae (FIG. 2) is “did not reduce the growth of B. glumae”.
With `CC(=O)c1c(O)cc(O)c(C(C)=O)c1O` [2,4-DAPG, 2,4-diacetylphloroglucinol], the “reduction in B. glumae growth” value in the assay on Burkholderia glumae (2,4-DAPG at 100 μg/mL alone or with pyoluteorin at 10 μg/mL, 18 hours, FIG. 7) came out at 45%. In addition, the “effect on growth of B. glumae (in words)” value with Burkholderia glumae (setting [5]) is listed as “inhibits B. glumae; also recorded: significantly reduced the growth of B. glumae”. Further, the “reduction of growth of B. glumae” value with Burkholderia glumae (setting [3]) turned out to be 93%. Also, in the assay with Burkholderia glumae, the “minimum inhibitory concentration needed for reduction of B. glumae growth in vitro” value worked out at 100 µg/mL. Also, in assay [1], the “reduction of B. glumae populations” value is reported as 1.17 logs and the “BPB symptoms in rice panicles (in words)” value is “showed reduction of symptoms”.
Consider `O=C(c1cc(Cl)c(Cl)[nH]1)c1c(O)cccc1O` [pyoluteorin], for which the “effect on growth of B. glumae (in words)” value in the assay on Burkholderia glumae (setting [5]) is “inhibits B. glumae; also recorded: significantly reduced the growth of B. glumae”. Further, the “reduction of growth of B. glumae” value with Burkholderia glumae (setting [6]) turned out to be 97%. In the assay with Burkholderia glumae (setting [3]), the “reduction of growth of B. glumae” value is reported as 97%. In the assay on Burkholderia glumae, the “minimum inhibitory concentration needed for reduction of B. glumae growth in vitro” value was found to be 100 µg/mL. Moreover, in assay [1], the “reduction of B. glumae populations” value is listed as 1.5 logs and the “BPB symptoms in rice panicles (in words)” value is “showed reduction of symptoms”.
With fengycin, in the assay on Burkholderia glumae (FIG. 2), the “growth of B. glumae (in words)” value is “did not reduce the growth of B. glumae”.
Consider `CN1[C@@H]([C@H]2CSC(c3ccccc3O)=N2)SC[C@H]1C(=O)O` [pyochelin], for which, in the assay on Burkholderia glumae (setting [2]), the “effect on growth of B. glumae (in words)” value is given as “inhibits B. glumae”. For the same compound, the “reduction of growth of B. glumae” value in the assay on Burkholderia glumae (setting [3]) amounted to 40%. Moreover, the “minimum inhibitory concentration needed for reduction of B. glumae growth in vitro” value with Burkholderia glumae amounted to 1000 µg/mL. Further, the “effect on growth of B. glumae (in words)” value in the assay with Burkholderia glumae (setting [4]) is on record as “did not have any effect”. In assay [1], the “reduction of B. glumae populations” value is given as “No changes in B. glumae populations” and the “BPB symptoms in rice panicles (in words)” value is on record as “showed reduction of symptoms”.

For the origin of these results see US20250374924A1, “ACTIVE MOLECULES IN THE SECRETOME OF PSEUDOMONAS PROTEGENS PBL3” (Board of Regents of the University of Nebraska, priority 2024, published 2025).
